Measured values: patent US20050070461A1, “Means and methods for altering the motility of the gastrointestinal tract” (priority 2002, published 2005)

What was measured:
[1] = tested on: gastric emptying in control mice; experiment: Gastric emptying in control mice given the anesthetics
[2] = tested on: murine model for postoperative ileus (gastroparesis after intestinal manipulation); experiment: Gastric emptying by scintigraphic imaging after intestinal manipulation (murine model for postoperative ileus); format: in vivo, mice; settings: for gastric emptying rate k / half-emptying time: MAb pre-operative, hexamethonium or guanethidine postoperative injection
[3] = tested on: MPO-containing leukocytes in ileal muscularis; experiment: Leukocyte recruitment / MPO activity in ileal muscularis after intestinal manipulation; format: in vivo, mice

With `Cc1cccc(C)c1N=C1NCCCS1` [xylazine] the gastric emptying ([1]; xylazine 20 mg/kg used alone) was “did not alter gastric emptying”.

In the case of `CNC1(c2ccccc2Cl)CCCCC1=O` (stereo not shown) [ketamine], the gastric emptying ([1]; xylazine 20 mg/kg in combination ketamine 100 mg/kg) is reported as “did not alter gastric emptying”.

For `CN1CCC(=C2c3ccccc3CC(=O)c3sccc32)CC1` [ketotifen], the development of gastroparesis ([2]; 24 hours after IM) was “could be prevented” and the “decrease of postoperative recruitment of MPO-containing leukocytes compared to vehicle” value ([3]; 24 hours after IM, ketotifen 10 mg/kg p.o. for five days prior to surgery) was 45%.

`C[N+](C)(C)CCCCCC[N+](C)(C)C` [hexamethonium] was tested, and the gastroparesis ([2]; 6 hours after IM) was “reversed the gastroparesis partially”, the “gastric emptying rate k” value ([2]; 6 hours after IM) was “normalized” and the half-emptying time ([2]; 6 hours after IM) was “normalized”. The development of gastroparesis ([2]; 24 hours after IM) was “completely”, the “gastric emptying rate k” value ([2]; 24 hours after IM) was “normalized” and the half-emptying time ([2]; 24 hours after IM) was “normalized”. The development of gastroparesis ([2]; mice, time not stated) was “capable of preventing the development of gastroparesis”, the “leukocyte influx / recruitment in ileal muscularis (MPO-staining cells)” value ([3]; 24 hours after IM) was “did not affect” and the “amount of MPO activity in muscularis homogenates” value ([3]; 24 hours after surgery) was “did not affect”.
